Results on 15 compounds are retold here after patent US20250136607A1 (REGOR PHARMACEUTICALS, INC., priority 2021, published 2025).

The target in assay [1] is Protein arginine deiminase 4 (PAD4) (Homo sapiens, UniProt Q9UM07). As to the kind of experiment: PAD4 ammonia release assay. The format is biochemical. Put shortly:
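PAD4 (20 nM, 2× working solution) was preincubated with compound for 15 min at RT in 100 mM HEPES pH 8.0, 2 mM CaCl2, 50 mM NaCl, 0.1 mM TCEP, BSA at 1.25% DMSO. BAEE (600 μM, 2× mix) reacted 60 min, then OPA/DTT/EDTA detection for 120 min. IC50 came from a 4-parameter fit, normalized to 50 μM reference (100%) and DMSO (0%).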

The test system of assay [2] is Citrullinated Histone H3 in dHL-60 cells (differentiated HL-60). Kind of assay: dHL-60 Cit-H3 ELISA assay. To be noted: Homo sapiens, HL-60, 3 h, stimulation with 25 μM A23187 for 3 h, read-out: Average IC50 Abs. The format is cell-based, human. As to the method: Cell culture: HL-60 cells were grown in IMDM+20% FBS+1% PS. The suspension cells were split into 1:5 with fresh media every 2-3 days to maintain cell density between 1×10^5 to 1×10^6 viable cells/mL. HL-60 cells differentiation: HL-60 cells were diluted to 1×10^5 cells/mL and differentiated into neutrophil-like cells with 100 mM DMF treatment for 72 hours in flask at 37° C., 5% CO2. dHL-60 Cells plating: • 1) HL-60 cells were collected, and the plate was centrifuged at 1000 rpm for 5 min. • 2) The HL-60 cells were diluted to 1.25×10^6 cells/mL and plated into a 96-well plate with 80 μL/well (i.e., 1×10^5/well). The plate was then incubated in the incubator (5% CO2, 37° C.) for 30 min to allow cells to adhere. Compound treatment: • 1) Preparation of compound serial dilution (source plate 500×, final DMSO concentration: 0.2%): briefly, compounds were dissolved in 100% DMSO to a concentration of 20 mM (the stock solution) and a 3-fold serial dilution with 8-point doses was performed. • 2) A 10× compound solution was pipetted up and down; and 10 μL/well of compounds were added into each well and incubated for 30 min. Stimulation with 25 μM A23187: • 1) A solution of A23187 (250 μM) in complete IMDM (IMDM+10% FBS+1% PS) containing 150 U/mL S7 Nuclease was prepared. The obtained solution was added 10 μL/well into each well and incubated for 3 h in the incubator (5% CO2, 37° C.). • 2) The dHL-60 cells treated with 10 μL/well complete IMDM without A23187 worked as negative control. Sample preparation: • 1) EDTA (0.5 M, 2 μL/well) were added to all the wells to stop the reaction. • 2) The plate was centrifuged at 1000 rpm for 5 min to collect supernatant. • 3) The supernatant was then diluted at least 1:2 before adding to the ELISA plate for citrullinated H3 analysis.
The standard was reconstituted with 2 mL of Assay buffer to 500 ng/mL. The reconstituted standard was relatively unstable at 4° C. and should be used within 3 hr after reconstitution.
• 1) 100 μL of the standards or diluted samples were added to the wells on the ELISA plate. • 2) The plate was covered with Cover Sheet and incubated for 2 h at room temperaturert on an orbital shaker.
On the day of the assay, the reagent was thawed at room temperaturert. For one plate, 1.2 mL of HRP Conjugate were diluted into 10.8 mL of assay buffer. A diluted HRP Conjugate was prepared shortly before use.
• 1) The wells were empties and rinsed four times with 1× wash buffer with 300 μL/well (Low speed). The plate was inverted between wash steps to empty the plate. After the last wash, the inverted plate was gently tapped on absorbent paper to remove the residual wash buffer. • 2) 100 μL of the HRP Conjugate working solution were added to each well of the plate. • 3) The plate was covered with cover sheet and incubated for 1 h at RT on an orbital shaker.
• 1) The wells were empties and rinsed four times with 1× wash buffer with 300 μL/well (low speed). The plate was inverted between wash steps to empty the plate. […] 100 uL of HRP STOP solution were added to each well of the plate.
• 1) Wipe the bottom of the plate with a clean tissue to remove fingerprints, dirt, etc. • 2) Read the plate at a wavelength of 450 nm.
The percent (%) inhibition at each concentration of compound was calculated based on and relative to the signal in the HPE and ZPE wells contained within each assay plate. The HPE wells worked as […], and the ZPE wells didn't contain any compound but rather DMSO (final concentration=0.1%) as […]. The concentrations and % inhibition values for tested compounds were plotted and the concentration of compound required for 50% inhibition (IC50) was determined with a Four-parameter logistic dose response equation. The endpoint value (IC50) for the reference peptide/compound was evaluated in each experiment as a quality control measure. If the endpoint value is within 3-fold of the expected value then the experiment is deemed acceptable. […]
(ELISA stands for enzyme-linked immunosorbent assay.)

[3] abbreviates: PAD4 ammonia release assay, BAEE substrate, 60 min at RT, read-out: Average IC50 Abs.

Molecules are shown by their SMILES. Like-named read-outs stand apart in the source and are kept apart here.

Protein arginine deiminase 4 (PAD4), sequence (Q9UM07 whole entry): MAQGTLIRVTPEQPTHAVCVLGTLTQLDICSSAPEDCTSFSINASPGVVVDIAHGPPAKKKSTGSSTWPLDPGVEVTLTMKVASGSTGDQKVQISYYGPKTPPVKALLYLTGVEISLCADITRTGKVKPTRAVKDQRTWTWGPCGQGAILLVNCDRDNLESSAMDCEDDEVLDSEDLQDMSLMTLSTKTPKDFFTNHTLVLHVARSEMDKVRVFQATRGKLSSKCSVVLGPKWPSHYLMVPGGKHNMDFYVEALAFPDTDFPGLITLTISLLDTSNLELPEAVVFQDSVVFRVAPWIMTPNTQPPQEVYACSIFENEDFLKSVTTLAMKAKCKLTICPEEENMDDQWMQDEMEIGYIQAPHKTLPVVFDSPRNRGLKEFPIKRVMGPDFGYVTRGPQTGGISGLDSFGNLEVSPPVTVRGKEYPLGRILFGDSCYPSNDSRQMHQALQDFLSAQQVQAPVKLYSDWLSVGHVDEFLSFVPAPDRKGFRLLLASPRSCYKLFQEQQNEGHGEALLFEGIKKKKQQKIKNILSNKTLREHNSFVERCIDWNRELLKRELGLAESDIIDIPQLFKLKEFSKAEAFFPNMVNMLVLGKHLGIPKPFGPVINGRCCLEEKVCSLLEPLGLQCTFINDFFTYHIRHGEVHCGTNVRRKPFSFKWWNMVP

As a reminder, the IC50 is the concentration that inhibits the measured activity by half. As for `Cn1c(-c2cc3ccc(C#N)c4c3n2[C@@H](C2CC2)CN4)nc2cc(C(=O)N3C[C@H]4CC[C@@H]3[C@@H]4N)cc(F)c21` (single isomer, unassigned) [Example 115], the IC50 in assay [1] (setting [3]) and in assay [2] was not above 100 nM each time.

Consider `CC(C)[C@H]1CNc2cccc3cc(-c4nc5cc(C(=O)N6C[C@H]7CC[C@@H]6[C@@H]7N)cc(F)c5n4C)n1c23` [Example 106, ((1R,4R,7R)-7-amino-2-azabicyclo[2.2.1]heptan-2-yl)(7-fluoro-2-((S)-3-isopropyl-2,3-dihydro-1H-pyrrolo[1,2,3-de]quinoxalin-5-yl)-1-methyl-1H-benzo[d]imidazol-5-yl)methanone], for which the figures for the IC50 in assay [1] (setting [3]) and in assay [2] were 100 to 500 nM and not above 100 nM, respectively. The “relative potency of separated isomers in the PAD4 biochemical assay” value in assay [1] (SFC-separated stereoisomer pairs) is recorded as “more potent than Example 105”.

Consider `COc1cc(C(=O)N2CCC[C@@H](N)C2)cc2nc(-c3cc4cccc5c4n3CCN5CCCO)n(Cc3cnn(C)c3)c12` [Example 44, (R)-(3-aminopiperidin-1-yl)(2-(1-(3-hydroxypropyl)-2,3-dihydro-1H-pyrrolo[1,2,3-de]quinoxalin-5-yl)-7-methoxy-1-((1-methyl-1H-pyrazol-4-yl)methyl)-1H-benzo[d]imidazol-5-yl)methanone], for which the values for the IC50 in assay [1] (setting [3]) and in assay [2] were 100 to 500 nM and 500 to 5000 nM, respectively.

On to `Cn1c(-c2cc3cccc4c3n2[C@@H](C2CC2)CN4CCCO)nc2cc(C(=O)N3C[C@H]4CC[C@@H]3[C@@H]4N)cc(F)c21` (single isomer, unassigned) [Example 112], for which the IC50 in assay [1] (setting [3]) and in assay [2] was not above 100 nM each time.

Turning to `CCN1CCc2c(ccc3cc(-c4nc5cc(C(=O)N6C[C@H]7CC[C@@H]6[C@@H]7N)cc(F)c5n4C)n(CC4CC4)c23)C1` [Example 153, ((1R,4R,7R)-7-amino-2-azabicyclo[2.2.1]heptan-2-yl)(2-(1-(cyclopropylmethyl)-7-ethyl-6,7,8,9-tetrahydro-1H-pyrrolo[2,3-f]isoquinolin-2-yl)-7-fluoro-1-methyl-1H-benzo[d]imidazol-5-yl)methanone], the IC50 in assay [1] (setting [3]) and in assay [2] was 100 to 500 nM in each case.

Turning to `CCn1cc(Cn2c(-c3cc4cccc5c4n3CCN5CCCO)nc3cc(C(=O)N4C[C@H](N)C[C@@H](F)C4)cc(F)c32)cn1` [Example 38, ((3R,5R)-3-amino-5-fluoropiperidin-1-yl)(1-((1-ethyl-1H-pyrazol-4-yl)methyl)-7-fluoro-2-(1-(3-hydroxypropyl)-2,3-dihydro-1H-pyrrolo[1,2,3-de]quinoxalin-5-yl)-1H-benzo[d]imidazol-5-yl)methanone], the IC50 in assay [1] (setting [3]) was not above 100 nM; in assay [2] it was 500 to 5000 nM.

Turning to `Cn1c(-c2cc3ccc4cn[nH]c4c3n2CC2CC2)nc2cc(C(=O)N3C[C@H]4CC[C@@H]3[C@@H]4N)cc(F)c21` [Example 157, ((1R,4R,7R)-7-amino-2-azabicyclo[2.2.1]heptan-2-yl)(2-(8-(cyclopropylmethyl)-1,8-dihydropyrrolo[3,2-g]indazol-7-yl)-7-fluoro-1-methyl-1H-benzo[d]imidazol-5-yl)methanone], the IC50 in assay [1] (setting [3]) and in assay [2] was not above 100 nM in each case.

Turning to `COc1cc(C(=O)N2C[C@H](N)C[C@@H](F)C2)cc2nc(-c3cc4cccc5c4n3CCN5CCCO)n(CC3CC(F)(F)C3)c12` [Example 50, ((3R,5R)-3-amino-5-fluoropiperidin-1-yl)(1-((3,3-difluorocyclobutyl)methyl)-2-(1-(3-hydroxypropyl)-2,3-dihydro-1H-pyrrolo[1,2,3-de]quinoxalin-5-yl)-7-methoxy-1H-benzo[d]imidazol-5-yl)methanone], the IC50 in assay [1] (setting [3]) is not above 100 nM; in assay [2], 100 to 500 nM.

Turning to `COc1cc(C(=O)N2C[C@H](N)C[C@@H](F)C2)cc2nc(-c3cc4cccc5c4n3CCN5CCCO)n(CC3CCC3)c12` [Example 48, ((3R,5R)-3-amino-5-fluoropiperidin-1-yl)(1-(cyclobutylmethyl)-2-(1-(3-hydroxypropyl)-2,3-dihydro-1H-pyrrolo[1,2,3-de]quinoxalin-5-yl)-7-methoxy-1H-benzo[d]imidazol-5-yl)methanone], the half-maximal inhibitory concentration (IC50) in assay [1] (setting [3]) and in assay [2] was 100 to 500 nM throughout.

With `CCC1CNc2cc(F)cc3cc(-c4nc5cc(C(=O)N6C[C@H]7CC[C@@H]6[C@@H]7N)cc(F)c5n4C)n1c23` (stereo partly drawn) [Example 130, ((1R,4R,7R)-7-amino-2-azabicyclo[2.2.1]heptan-2-yl)(2-(3-ethyl-8-fluoro-2,3-dihydro-1H-pyrrolo[1,2,3-de]quinoxalin-5-yl)-7-fluoro-1-methyl-1H-benzo[d]imidazol-5-yl)methanone], the half-maximal inhibitory concentration (IC50) in assay [1] (setting [3]) and in assay [2] was 100 to 500 nM each time.

In the case of `CC(C)C1CNc2cccc3cc(-c4nc5cc(C(=O)N6C[C@H]7CC[C@@H]6[C@@H]7N)cc(F)c5n4C)n1c23` (stereo partly drawn) [Example 104, ((1R,4R,7R)-7-amino-2-azabicyclo[2.2.1]heptan-2-yl)(7-fluoro-2-(3-isopropyl-2,3-dihydro-1H-pyrrolo[1,2,3-de]quinoxalin-5-yl)-1-methyl-1H-benzo[d]imidazol-5-yl)methanone], the IC50 in assay [1] (PAD4 activity comparison, read-out: PAD4 Ammonia assay IC50) is 130 nM; in assay [1] (setting [3]), 100 to 500 nM; in assay [2] it was not above 100 nM.

Take `COc1cc(C(=O)N2C[C@H](N)C[C@@H](F)C2)cc2nc(-c3cc4cccc5c4n3C(C)CN5CCCO)n(C)c12` (stereo partly drawn) [Example 64, ((3R,5R)-3-amino-5-fluoropiperidin-1-yl)(2-(1-(3-hydroxypropyl)-3-methyl-2,3-dihydro-1H-pyrrolo[1,2,3-de]quinoxalin-5-yl)-7-methoxy-1-methyl-1H-benzo[d]imidazol-5-yl)methanone]: the IC50 in assay [1] (setting [3]) and in assay [2] was 100 to 500 nM throughout.

As for `Cn1c(-c2cc3cccc4c3n2[C@@H](C2CC2)CN4)nc2cc(C(=O)N3C[C@H]4CC[C@@H]3[C@@H]4N)cc(F)c21` (single isomer, unassigned) [Example 110], the IC50 in assay [1] (setting [3]) and in assay [2] was not above 100 nM each time.

As to `Cn1c(-c2cc3cccc4c3n2C(C2CCC2)CN4)nc2cc(C(=O)N3C[C@H]4CC[C@@H]3[C@@H]4N)cc(F)c21` (stereo partly drawn) [Example 164, ((1R,4R,7R)-7-amino-2-azabicyclo[2.2.1]heptan-2-yl)(2-(3-cyclobutyl-2,3-dihydro-1H-pyrrolo[1,2,3-de]quinoxalin-5-yl)-7-fluoro-1-methyl-1H-benzo[d]imidazol-5-yl)methanone], the IC50 in assay [1] (setting [3]) was 100 to 500 nM; in assay [2] it was not above 100 nM.

On to `Cn1cc(Cn2c(-c3cc4cccc5c4n3CCN5CCCO)nc3cc(C(=O)N4C[C@@H](N)C[C@H](F)C4)cc(F)c32)cn1` [Example 46, ((3S,5S)-3-amino-5-fluoropiperidin-1-yl)(7-fluoro-2-(1-(3-hydroxypropyl)-2,3-dihydro-1H-pyrrolo[1,2,3-de]quinoxalin-5-yl)-1-((1-methyl-1H-pyrazol-4-yl)methyl)-1H-benzo[d]imidazol-5-yl)methanone], for which the results for the concentration for half-maximal inhibition (IC50) in assay [1] (setting [3]) and in assay [2] were not above 100 nM and 500 to 5000 nM, respectively.
